Results on 29 compounds are retold here after patent US20250188040A1, “PHARMACEUTICAL COMPOSITIONS COMPRISING WRN HELICASE INHIBITORS” (Vividion Therapeutics, Inc., priority 2022, published 2025).

The structures appear in SMILES notation. pIC50: −log10 of the molar value. Where two headings read alike, the source gives them in different places.

In one assay the target is T1, WRN C727 (Homo sapiens, UniProt Q14191).
T1 construct: endogenous in cells; host or cells: OCI-AML2
In words: Target engagement, in vitro (lysate), OCI-AML2. The conditions noted are these: read-out: OCI-AML2 WRN C727 TE50 in vitro (lysate). It is filed as binding. The method, then: Cells or cell lysates were treated with a dose response of compound followed by probe treatment, which labels solvent exposed cysteines. Proteins were enzymatically digested with trypsin and probe-labelled peptides were enriched with streptavidin. Isolated peptides were then separated using reversed-phase liquid chromatography on a C18 column (Dionex Ultimated 3000 nano-LC, Thermo). Peptides were analyzed by parallel reaction monitoring mass spectrometry (Exploris 120, Thermo).
Target engagement (%) is calculated relative to DMSO treated control samples.

In assay [1] the target is hWRN(519-1227)_C-H3CV-GFP-10His (Homo sapiens, UniProt Q14191). In words: Helicase Assay for WRN Inhibition (ATP-dependent, fluorescence based). The conditions noted are these: 30 min reaction.
Chain of hWRN(519-1227)_C-H3CV-GFP-10His (Q14191 519-1227): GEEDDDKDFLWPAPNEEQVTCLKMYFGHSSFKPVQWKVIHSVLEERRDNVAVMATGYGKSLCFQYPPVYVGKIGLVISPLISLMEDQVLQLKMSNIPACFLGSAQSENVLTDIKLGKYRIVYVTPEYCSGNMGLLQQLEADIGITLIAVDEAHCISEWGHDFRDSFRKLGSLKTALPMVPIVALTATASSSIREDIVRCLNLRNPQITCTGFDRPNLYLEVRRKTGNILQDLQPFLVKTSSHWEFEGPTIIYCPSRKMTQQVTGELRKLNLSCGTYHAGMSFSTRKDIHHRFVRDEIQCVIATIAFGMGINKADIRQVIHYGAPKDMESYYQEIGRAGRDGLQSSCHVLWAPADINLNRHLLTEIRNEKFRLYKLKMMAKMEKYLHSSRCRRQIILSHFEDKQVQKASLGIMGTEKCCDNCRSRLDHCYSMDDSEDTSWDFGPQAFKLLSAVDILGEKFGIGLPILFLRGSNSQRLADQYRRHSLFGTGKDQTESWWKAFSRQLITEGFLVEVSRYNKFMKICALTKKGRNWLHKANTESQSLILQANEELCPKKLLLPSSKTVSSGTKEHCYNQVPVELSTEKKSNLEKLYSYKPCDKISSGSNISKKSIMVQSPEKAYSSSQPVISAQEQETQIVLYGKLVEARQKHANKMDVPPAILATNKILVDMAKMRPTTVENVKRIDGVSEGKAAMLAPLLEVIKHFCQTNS
Setting [2] is: WRN Helicase IC50, 30 min preincubation with ATP.

T1 sequence (Q14191 whole entry): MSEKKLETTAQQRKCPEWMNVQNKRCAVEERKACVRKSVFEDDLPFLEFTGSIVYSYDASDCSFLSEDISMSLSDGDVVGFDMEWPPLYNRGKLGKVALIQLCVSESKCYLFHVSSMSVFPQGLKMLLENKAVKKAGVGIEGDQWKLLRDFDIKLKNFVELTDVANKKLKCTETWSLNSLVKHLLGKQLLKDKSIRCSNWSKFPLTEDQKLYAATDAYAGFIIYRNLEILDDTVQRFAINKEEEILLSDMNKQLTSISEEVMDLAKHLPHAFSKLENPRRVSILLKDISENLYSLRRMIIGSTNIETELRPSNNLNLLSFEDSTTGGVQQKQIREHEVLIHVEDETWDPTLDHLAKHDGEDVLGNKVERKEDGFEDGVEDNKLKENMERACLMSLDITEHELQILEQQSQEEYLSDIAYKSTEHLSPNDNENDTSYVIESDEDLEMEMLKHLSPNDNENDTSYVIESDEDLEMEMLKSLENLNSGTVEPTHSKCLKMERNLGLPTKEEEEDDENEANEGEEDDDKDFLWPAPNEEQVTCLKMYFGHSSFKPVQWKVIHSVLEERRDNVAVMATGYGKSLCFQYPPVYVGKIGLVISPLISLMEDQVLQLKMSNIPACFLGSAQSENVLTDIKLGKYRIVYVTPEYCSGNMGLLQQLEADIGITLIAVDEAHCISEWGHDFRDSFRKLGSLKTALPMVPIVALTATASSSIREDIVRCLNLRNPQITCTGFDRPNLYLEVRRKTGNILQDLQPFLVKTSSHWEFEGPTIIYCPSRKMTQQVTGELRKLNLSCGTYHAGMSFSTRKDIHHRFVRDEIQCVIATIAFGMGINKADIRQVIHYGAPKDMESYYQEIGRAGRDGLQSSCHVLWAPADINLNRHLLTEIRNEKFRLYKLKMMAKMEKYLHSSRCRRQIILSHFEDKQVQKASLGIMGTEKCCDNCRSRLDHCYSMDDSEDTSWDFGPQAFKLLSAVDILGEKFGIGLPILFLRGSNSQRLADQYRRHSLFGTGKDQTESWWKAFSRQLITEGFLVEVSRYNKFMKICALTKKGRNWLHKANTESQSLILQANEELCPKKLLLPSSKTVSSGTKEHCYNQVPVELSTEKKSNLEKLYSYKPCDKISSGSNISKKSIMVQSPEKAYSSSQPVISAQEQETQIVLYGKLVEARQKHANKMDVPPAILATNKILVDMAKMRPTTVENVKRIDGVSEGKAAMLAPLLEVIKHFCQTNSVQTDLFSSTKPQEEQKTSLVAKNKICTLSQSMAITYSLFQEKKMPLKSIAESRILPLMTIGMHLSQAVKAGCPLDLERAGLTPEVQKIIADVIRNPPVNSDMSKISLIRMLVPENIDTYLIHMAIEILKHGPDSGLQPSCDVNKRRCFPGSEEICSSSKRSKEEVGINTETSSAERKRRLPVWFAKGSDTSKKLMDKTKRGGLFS

`C[C@@H](/C=C/S(C)(=O)=O)NC(=O)c1cnc(C2CCCC2)nc1O[C@H]1CCCC[C@H]1O` (single isomer, unassigned) [Example 129]: the pIC50 on WRN C727 was less than 4.00; in assay [1] (setting [2]), 4.07.
For `CS(=O)(=O)/C=C/CNC(=O)c1cnc(-c2ccn[nH]2)nc1Oc1ccccc1` [Example 209, (E)-N-(3-(methylsulfonyl)allyl)-4-phenoxy-2-(1H-pyrazol-5-yl)pyrimidine-5-carboxamide] the same measures were less than 4.00 and 4.74.
For `C[C@@H](/C=C/S(C)(=O)=O)NC(=O)c1cnc(C2CC2)c(F)c1Oc1ccccc1` [Example 205, (S,E)-6-cyclopropyl-5-fluoro-N-(4-(methylsulfonyl)but-3-en-2-yl)-4-phenoxynicotinamide] the same measures were less than 4.00 and 4.70.
In the case of `Cc1ccccc1Oc1nc(C2CCCC2)ncc1C(=O)N[C@@H](C)/C=C/S(C)(=O)=O` [Example 106, (S,E)-2-cyclopentyl-N-(4-(methylsulfonyl)but-3-en-2-yl)-4-(o-tolyloxy)pyrimidine-5-carboxamide], the figures for the pIC50 (on WRN C727; in assay [1] (setting [2])) were less than 4.00 and 4.62, respectively.
For `C[C@@H](/C=C/S(C)(=O)=O)NC(=O)c1cnc(C2CCCC2)nc1O[C@@H]1CCCC[C@H]1O` (single isomer, unassigned) [Example 132], in that order: less than 4.00 and 4.52.
For `C[C@@H](/C=C/S(C)(=O)=O)NC(=O)c1cnc(N2CCC(F)(F)C2)nc1Oc1ccccc1` [Example 173, (S,E)-2-(3,3-difluoropyrrolidin-1-yl)-N-(4-(methylsulfonyl)but-3-en-2-yl)-4-phenoxypyrimidine-5-carboxamide] the same measures were less than 4.00 and 4.32.
For `CC(=O)Nc1nc(C2CCCC2)nc(Oc2ccccc2)c1C(=O)N[C@@H](C)/C=C/S(C)(=O)=O` [Example 256, (S,E)-4-acetamido-2-cyclopentyl-N-(4-(methylsulfonyl)but-3-en-2-yl)-6-phenoxypyrimidine-5-carboxamide], in that order: less than 4.00 and 4.38.
For `C[C@@H](/C=C/S(C)(=O)=O)NC(=O)c1cnc(C2CC2)nc1OC1CC2(CCC2)C1` [Example 141, (S,E)-2-cyclopropyl-N-(4-(methylsulfonyl)but-3-en-2-yl)-4-(spiro[3.3]heptan-2-yloxy)pyrimidine-5-carboxamide], the pIC50 on WRN C727 is less than 4.00; in assay [1] (setting [2]), 3.93.
For `C[C@@H](/C=C/S(C)(=O)=O)NC(=O)c1cnc(N2CC3(CCC3)C2)nc1Oc1ccccc1` [Example 170, (S,E)-N-(4-(methylsulfonyl)but-3-en-2-yl)-4-phenoxy-2-(2-azaspiro[3.3]heptan-2-yl)pyrimidine-5-carboxamide], in that order: less than 4.00 and 3.86.
For `C[C@@H](/C=C/S(C)(=O)=O)NC(=O)c1cnc(C2CCCC2)nc1O[C@H]1CCCOC1` [Example 134, 2-cyclopentyl-N—((S,E)-4-(methylsulfonyl)but-3-en-2-yl)-4-(((S)-tetrahydro-2H-pyran-3-yl)oxy)pyrimidine-5-carboxamide] the same measures were less than 4.00 and 4.28.
For `C[C@@H](/C=C/S(C)(=O)=O)NC(=O)c1cnc(C2CC2)nc1OCC1CC1` [Example 150, (S,E)-2-cyclopropyl-4-(cyclopropylmethoxy)-N-(4-(methylsulfonyl)but-3-en-2-yl)pyrimidine-5-carboxamide] the same measures were less than 4.00 and 4.37.
Take `CC(C)(C)c1ncc(C(=O)NC2(C=CS(C)(=O)=O)CC2)c(Oc2ccccc2)n1` (racemic) [Example 59, 2-(tert-butyl)-N-(1-(2-(methylsulfonyl)vinyl)cyclopropyl)-4-phenoxypyrimidine-5-carboxamide]: the pIC50 on WRN C727 is less than 4.00; in assay [1] (setting [2]), 4.27.
For `CC(C)Oc1cc(C2CCCC2)ccc1C(=O)NC/C=C/S(C)(=O)=O` [Example 281, (E)-4-cyclopentyl-2-isopropoxy-N-(3-(methylsulfonyl)allyl)benzamide], in that order: 4.38 and 4.29.
As to `C[C@@H](/C=C/S(C)(=O)=O)NC(=O)c1cnc(C2CCOCC2)nc1Oc1ccccc1` [Example 238, (S,E)-N-(4-(methylsulfonyl)but-3-en-2-yl)-4-phenoxy-2-(tetrahydro-2H-pyran-4-yl)pyrimidine-5-carboxamide], the values for the pIC50 (at WRN C727; in assay [1] (setting [2])) were less than 4.00 and 4.28, respectively.
For the compound `Cc1ccc(Oc2nc(C3CCCC3)ncc2C(=O)N[C@@H](C)/C=C/S(C)(=O)=O)cc1C` [Example 109, (S,E)-2-cyclopentyl-4-(3,4-dimethylphenoxy)-N-(4-(methylsulfonyl)but-3-en-2-yl)pyrimidine-5-carboxamide], the results for the pIC50 (on WRN C727; in assay [1] (setting [2])) were less than 4.00 and 3.74, respectively.
For `Cc1nc(C2CCCC2)nc(Oc2ccccc2)c1C(=O)N[C@@H](C)/C=C/S(C)(=O)=O` [Example 162, (S,E)-2-cyclopentyl-4-methyl-N-(4-(methylsulfonyl)but-3-en-2-yl)-6-phenoxypyrimidine-5-carboxamide] the same measures were less than 4.00 and 3.89.
For the compound `Cc1ccc(Oc2nc(C3CCCC3)ncc2C(=O)NC/C=C/S(C)(=O)=O)cc1` [Example 104, (E)-2-cyclopentyl-N-(3-(methylsulfonyl)allyl)-4-(p-tolyloxy)pyrimidine-5-carboxamide], the pIC50 on WRN C727 was 4.66; in assay [1] (setting [2]), 4.72.
For the compound `CN(C/C=C/S(C)(=O)=O)C(=O)c1cnc(C2CCCC2)nc1Oc1ccccc1` [Example 187, (E)-2-cyclopentyl-N-methyl-N-(3-(methylsulfonyl)allyl)-4-phenoxypyrimidine-5-carboxamide], the pIC50 is less than 4.00 on WRN C727 and 4.28 in assay [1] (setting [2]).
For `C[C@@H](/C=C/S(C)(=O)=O)NC(=O)c1ncc(C2=CCCC2)nc1Oc1ccccc1` [Example 207, (S,E)-5-(cyclopent-1-en-1-yl)-N-(4-(methylsulfonyl)but-3-en-2-yl)-3-phenoxypyrazine-2-carboxamide], in that order: less than 4.00 and 4.28.
For the compound `C[C@@H](/C=C/S(C)(=O)=O)NC(=O)c1cnc(C2CCCC2)nc1Oc1cccc(N)c1` [Example 138, (S,E)-4-(3-aminophenoxy)-2-cyclopentyl-N-(4-(methylsulfonyl)but-3-en-2-yl)pyrimidine-5-carboxamide], the figures for the pIC50 (at WRN C727; in assay [1] (setting [2])) were less than 4.00 and 4.72, respectively.
For `CO[C@H](C)[C@@H](/C=C/S(C)(=O)=O)NC(=O)c1cnc(C2CC2)nc1Oc1ccccc1` [Example 32, 2-cyclopropyl-N-((3R,4R,E)-4-methoxy-1-(methylsulfonyl)pent-1-en-3-yl)-4-phenoxypyrimidine-5-carboxamide], in that order: less than 4.00 and 4.46.
For `C[C@@H](/C=C/S(C)(=O)=O)NC(=O)c1cnc(C2CCCC2)nc1O[C@H]1CCCC[C@@H]1O` (single isomer, unassigned) [Example 131] the same measures were less than 4.00 and 4.62.
For `CC1CC[C@@H](C)N1c1ncc(C(=O)N[C@@H](C)/C=C/S(C)(=O)=O)c(Oc2ccccc2)n1` (stereo in doubt) [Example 172, 2-((2R,5S)-2,5-dimethylpyrrolidin-1-yl)-N—((S,E)-4-(methylsulfonyl)but-3-en-2-yl)-4-phenoxypyrimidine-5-carboxamide], the pIC50 was 4.51 on WRN C727 and 4.89 in assay [1] (setting [2]).
For the compound `C[C@@H](/C=C/S(C)(=O)=O)NC(=O)c1cnc(C2=CCCOC2)nc1Oc1ccccc1` [Example 211, (S,E)-2-(5,6-dihydro-2H-pyran-3-yl)-N-(4-(methylsulfonyl)but-3-en-2-yl)-4-phenoxypyrimidine-5-carboxamide], the pIC50 on WRN C727 was less than 4.00; in assay [1] (setting [2]) it was 4.29.
Regarding `C[C@@H](/C=C/S(C)(=O)=O)NC(=O)c1cnc(C2CCCC2)nc1Oc1ccccn1` [Example 126, (S,E)-2-cyclopentyl-N-(4-(methylsulfonyl)but-3-en-2-yl)-4-(pyridin-2-yloxy)pyrimidine-5-carboxamide], the pIC50 is less than 4.00 on WRN C727 and 4.35 in assay [1] (setting [2]).
For `C[C@@H](/C=C/S(C)(=O)=O)NC(=O)c1cnc(C2CCCC2)nc1O[C@@H]1CCCC[C@@H]1O` (single isomer, unassigned) [Example 130], in that order: less than 4.00 and 4.30.
Take `CC(C)(C)c1ncc(C(=O)NC/C=C/S(C)(=O)=O)c(O[C@H]2C[C@@H]3C[C@@H]3C2)n1` [Example 145, 4-(((1R,3s,5S)-bicyclo[3.1.0]hexan-3-yl)oxy)-2-(tert-butyl)-N—((E)-3-(methylsulfonyl)allyl)pyrimidine-5-carboxamide]: the IC50 on WRN C727 is listed as greater than 100 µM. In addition, the pIC50 in assay [1] (read-out: WRN Helicase IC50, 30 min preincubation with ATP) is 4.23.
Regarding `C[C@@H](/C=C/S(C)(=O)=O)NC(=O)c1cc2c(nc1Oc1ccccc1)CCC2` [Example 243, (S,E)-N-(4-(methylsulfonyl)but-3-en-2-yl)-2-phenoxy-6,7-dihydro-5H-cyclopenta[b]pyridine-3-carboxamide], the pIC50 was less than 4.00 at WRN C727 and 4.37 in assay [1] (setting [2]).
For `C[C@@H](/C=C/S(C)(=O)=O)NC(=O)c1cnc(C2Cc3ccccc32)nc1Oc1ccccc1` (stereo partly drawn) [Example 52, 2-(bicyclo[4.2.0]octa-1,3,5-trien-7-yl)-N—((S,E)-4-(methylsulfonyl)but-3-en-2-yl)-4-phenoxypyrimidine-5-carboxamide] the same measures were less than 4.00 and 4.18.
